Each molecule was assayed against AMPK (assay: AMPK activation, enzyme-linked immunosorbent assay). Details: Table 2, ELISA.
Assay type: biochemical
Description: Compounds 1-54 were assayed for their ability to activate AMPK using an enzyme-linked immunosorbent assay.
Compounds 55-62 of Table 1 were assayed for their ability to activate AMPK using an enzyme-linked immunosorbent assay.
Compounds 63-66 of Table 1 were assayed for their ability to activate AMPK using an enzyme-linked immunosorbent assay.
Compounds 67-71 of Table 1 were assayed for their ability to activate AMPK using an enzyme-linked immunosorbent assay.
Compound 72 of Table 1 was assayed for its ability to activate AMPK using an enzyme-linked immunosorbent assay.
For `O=C(NC1CCN(S(=O)(=O)c2ccc(C(F)(F)F)cc2)CC1)c1ccc2[nH]c3c(c2c1)CN(Cc1ccc(C(F)(F)F)cc1)CC3` [Compound 23, 2-(4-(trifluoromethyl)benzyl)-N-(1-(4-(trifluoro-methyl)phenylsulfonyl)piperidin-4-yl)-2,3,4,5-tetrahydro-1H-pyrido[4,3-b]indole-8-carboxamide], the EC50 was 1 to 5 µM. With `N#Cc1ccc(CN2CCC(NC(=O)c3ccc4[nH]c5c(c4c3)CN(S(=O)(=O)c3ccc(C(F)(F)F)cc3)CC5)CC2)cc1` [Compound 24, N-(1-(4-cyanobenzyl)piperidin-4-yl)-2-(4-(trifluoromethyl)phenyl-sulfonyl)-2,3,4,5-tetrahydro-1H-pyrido[4,3-b]indole-8-carboxamide] the EC50 was 1 to 5 µM. `N#Cc1ccc(CN2CCC(NC(=O)c3ccc4[nH]c5c(c4c3)CN(S(=O)(=O)c3ccc(C#N)cc3)CC5)CC2)cc1` [Compound 25, N-(1-(4-cyanobenzyl)piperidin-4-yl)-2-(4-cyanophenylsulfonyl)-2,3,4,5-tetrahydro-1H-pyrido[4,3-b]indole-8-carboxamide] showed an EC50 of 10 to 50 µM. In the case of `N#Cc1ccc(CN2CCC(NC(=O)c3ccc4[nH]c5c(c4c3)CN(S(=O)(=O)c3cccnc3)CC5)CC2)cc1` [Compound 26, N-(1-(4-cyanobenzyl)piperidin-4-yl)-2-(pyridin-3-ylsulfonyl)-2,3,4,5-tetrahydro-1H-pyrido [4,3-b]indole-8-carboxamide], the EC50 is reported as 10 to 50 µM. Molecule `N#Cc1ccc(NC(=O)N2CCC(NC(=O)c3ccc4[nH]c5c(c4c3)CN(Cc3ccc(C(F)(F)F)cc3)CC5)CC2)cc1` [Compound 27, N-(1-(4-cyanophenyl-carbamoyl)piperidin-4-yl)-2-(4-(trifluoro-methyl)benzyl)-2,3,4,5-tetrahydro-1H-pyrido [4,3-b]indole-8-carboxamide] has an EC50 of 1 to 5 µM. For `O=C(NC1CCN(S(=O)(=O)c2ccc(F)cc2)CC1)c1ccc2[nH]c3c(c2c1)CN(Cc1ccc(C(F)(F)F)cc1)CC3` [Compound 28, N-(1-(4-fluorophenyl-sulfonyl)piperidin-4-yl)-2-(4-(trifluoromethyl)benzyl)-2,3,4,5-tetrahydro-1H-pyrido[4,3-b]indole-8-carboxamide], the EC50 was 1 to 5 µM. In the case of `N#Cc1cccc(S(=O)(=O)N2CCC(NC(=O)c3ccc4[nH]c5c(c4c3)CN(Cc3ccc(C(F)(F)F)cc3)CC5)CC2)c1` [Compound 29, N-(1-(3-cyanophenyl-sulfonyl)piperidin-4-yl)-2-(4-(trifluoromethyl)benzyl)-2,3,4,5-tetrahydro-1H-pyrido[4,3-b]indole-8-carboxamide], the EC50 is reported as 1 to 5 µM. In the case of `O=C(NC1CCN(S(=O)(=O)c2cccc(C(F)(F)F)c2)CC1)c1ccc2[nH]c3c(c2c1)CN(Cc1ccc(C(F)(F)F)cc1)CC3` [Compound 30, 2-(4-(trifluoromethyl)benzyl)-N-(1-(3-(trifluoro-methyl)phenylsulfonyl)piperidin-4-yl)-2,3,4,5-tetrahydro-1H-pyrido [4,3-b]indole-8-carboxamide], the EC50 is reported as 1 to 5 µM. `O=C(NC1CCN(S(=O)(=O)c2ccc(Cl)cc2)CC1)c1ccc2[nH]c3c(c2c1)CN(Cc1ccc(C(F)(F)F)cc1)CC3` [Compound 32, N-(1-(4-chlorophenyl-sulfonyl)piperidin-4-yl)-2-(4-(trifluoromethyl)benzyl)-2,3,4,5-tetrahydro-1H-pyrido[4,3-b]indole-8-carboxamide] gave an EC50 of 1 to 5 µM. `O=C(NC1CCN(C(=O)Nc2ccc(C(F)(F)F)cc2)CC1)c1ccc2[nH]c3c(c2c1)CN(Cc1ccc(C(F)(F)F)cc1)CC3` [Compound 33, 2-(4-(trifluoromethyl)benzyl)-N-(1-(4-(trifluoro-methyl)phenylcarbamoyl)piperidin-4-yl)-2,3,4,5-tetrahydro-1H-pyrido[4,3-b]indole-8-carboxamide] gave an EC50 of 1 to 5 µM. For `O=C(NC1CCN(S(=O)(=O)c2ccc(F)cc2)CC1)c1ccc2[nH]c3c(c2c1)CN(c1ccc(F)cc1)CC3` [Compound 35, 2-(4-fluorophenyl)-N-(1-(4-fluorophenylsulfonyl)piperidin-4-yl)-2,3,4,5-tetrahydro-1H-pyrido[4,3-b] indole-8-carboxamide], the EC50 was 10 to 50 µM.
